Assay results published in patent publication US6699896B1, “Oxazole-aryl-carboxylic acids useful in the treatment of insulin resistance and hyperglycemia” (Wyeth, priority 1998, dated 2004).
Marks after values point to notes of the source that are not given here.

What was measured:
diabetic (ob/ob) mice = test: Blood glucose lowering in diabetic (ob/ob) mice; assay type: in vivo, mouse; settings: dose 100 mg/Kg, plasma glucose
From the text: The procedures used and results obtained are briefly described below.
The non-insulin dependent diabetic (NIDDM) syndrome can be typically characterizes by obesity, hyperglycemia, abnormal insulin secretion, hyperinsulinemia and insulin resistance.
In each test procedure, mice [Male or female ob/ob (C57 B1/6J) and their lean litermates (ob/+ or +/+, Jackson Laboratories) ages 2 to 5 months (10 to 65 g)] of a similar age were randomized according to body weight into 4 groups of 10 mice. The mice were housed 5 per cage and are maintained on normal rodent chow with water ad libitum. Mice received test compound daily by gavage (suspended in 0.5 ml of 0.5% methyl cellulose); dissolved in the drinking water; or admixed in the diet. The dose of compounds given ranges from 2.5 to 200 mg/kg body weight/day. The dose is calculated based on the fed weekly body weight and is expressed as active moiety. […]
On the morning of Day 4, 7 or 14 two drops of blood (approximately 50 ul) were collected into sodium fluoride containing tubes either from the tail vein or after decapitation. […] The plasma was isolated by centrifugation and the concentration of glucose is measured enzymatically on an Abbott V.P. Analyzer.
For each mouse, the percentage change in plasma glucose on Day 4, 7 or 14 is calculated relative to the mean plasma glucose of the vehicle treated mice. […]

[1] = tested on: rat hepatic microsomal PTPases; settings: PTPase activity, compound at 50 μM, rat liver microsomes
Human recombinant PTP1B = molecular target: T1, Human recombinant PTP1B (Homo sapiens, UniProt P18031); assay type: biochemical; settings: for IC50: recombinant PTP1B, malachite green phosphate detection; for percent of phosphatase control (change) at single concentration: compound at 2.5 uM
T1 construct: made in house
T1 sequence (P18031 1-435): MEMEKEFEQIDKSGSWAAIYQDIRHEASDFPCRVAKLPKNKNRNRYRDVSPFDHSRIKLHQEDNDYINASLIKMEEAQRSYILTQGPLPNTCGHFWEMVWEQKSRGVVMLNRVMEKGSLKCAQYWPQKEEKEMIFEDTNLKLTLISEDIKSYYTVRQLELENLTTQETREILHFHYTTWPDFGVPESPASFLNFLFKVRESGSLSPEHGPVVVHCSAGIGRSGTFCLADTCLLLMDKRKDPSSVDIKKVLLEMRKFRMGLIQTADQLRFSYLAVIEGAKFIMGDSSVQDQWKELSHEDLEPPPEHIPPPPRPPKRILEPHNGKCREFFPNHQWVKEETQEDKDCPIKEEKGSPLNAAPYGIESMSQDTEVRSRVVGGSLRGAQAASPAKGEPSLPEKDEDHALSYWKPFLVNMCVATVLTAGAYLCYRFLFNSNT

Compound	% Change from Control [1]	IC50 (Human recombinant PTP1B)	melting point	percent of phosphatase control (change) at single concentration (Human recombinant PTP1B)	% Change Glucose from Vehicle (diabetic (ob/ob) mice)
CC1(COc2ccc(CC3SC(=O)NC3=O)cc2)CCCCC1 (stereo not drawn) [Ciglitazone, 5-(4-(1-methylcyclohexylmethoxy)benzyl)-2,4-dione, reference compound]	–	–	–	–	−43%
Cc1oc(-c2ccc(C(F)(F)F)cc2)nc1-c1ccc(-c2ccc(OCC(=O)O)cc2)cc1 [Example 5, {4′-[5-Methyl-2-(4-trifluoromethyl-phenyl)-oxazol-4-yl]-biphenyl-4-yloxy}-acetic Acid]	–	0.85 µM	–	–	−40^a %
Cc1oc(-c2ccc(C(F)(F)F)cc2)nc1-c1ccc(-c2cc(Br)c(OCC(=O)O)c(Br)c2)cc1 [Example 10, {3,5-Dibromo-4′-[5-methyl-2-(4-trifluoromethyl-phenyl)-oxazol-4-yl]-biphenyl-4-yloxy}-acetic Acid]	−35%	0.47 µM	–	–	–
Cc1oc(-c2ccc(C(F)(F)F)cc2)nc1-c1ccc(-c2cccc(Cn3oc(=O)[nH]c3=O)c2)cc1 [Example 14, 2-{4′-[5-Methyl-2-(4-trifluoromethyl-phenyl)-oxazol-4-yl]-biphenyl-3-ylmethyl}-[1,2,4]oxadiazolidine-3,5-dione]	–	–	216 to 218 °C	−65 (2.5 uM) %	–
COc1ccc(-c2ccc(-c3nc(-c4ccc(C(F)(F)F)cc4)oc3C)cc2)cc1 [Example 1, 4-(4′-Methoxy-biphenyl-4-yl)-5-methyl-2-(4-trifluoromethyl-phenyl)-oxazole]	–	1.66 µM	167 to 168 °C	–	–
Cc1oc(-c2ccc(C(F)(F)F)cc2)nc1-c1ccc(-c2ccc(OC(Cc3ccccc3)C(=O)O)cc2)cc1 (stereo not drawn) [Example 7, 2-{4′-[5-Methyl-2-(4-trifluoromethyl-phenyl)-oxazol-4-yl]-biphenyl-4-yloxy}-3-phenyl-propionic Acid]	−74%	1.29 µM	–	–	–
Cc1oc(-c2ccc(C(F)(F)F)cc2)nc1-c1cccc(-c2ccc(O)cc2)c1 [Example 4, 3′-[5-Methyl-2-(4-trifluoromethyl-phenyl)-oxazol-4-yl]-biphenyl-4-ol]	−28%	–	–	–	–

Now from value to compound, other results behind:

% Change from Control [1]	IC50 (Human recombinant PTP1B)	melting point	percent of phosphatase control (change) at single concentration (Human recombinant PTP1B)	Compound	% Change Glucose from Vehicle (diabetic (ob/ob) mice)
−20%	0.65 µM	–	–	Cc1oc(-c2ccc(C(F)(F)F)cc2)nc1-c1ccc(-c2cc(Br)c(O)c(Br)c2)cc1 [Example 9, 3,5-Dibromo-4′-[5-methyl-2-(4-trifluoromethyl-phenyl)-oxazol-4-yl]-biphenyl-4-ol]	–
–	–	93 to 94 °C	−47 (2.5 uM) %	COc1ccc(-c2cccc(-c3nc(-c4ccc(C(F)(F)F)cc4)oc3C)c2)cc1 [Example 2, 4-(4′-Methoxy-biphenyl-3-yl)-5-methyl-2-(4-trifluoromethyl-phenyl)-oxazole]	–
–	–	–	−56 (2.5 uM) %	Cc1oc(-c2ccc(C(F)(F)F)cc2)nc1-c1ccc(-c2ccc(O)cc2)cc1 [Example 3, 4′-[5-Methyl-2-(4-trifluoromethyl-phenyl)-oxazol-4-yl]-biphenyl-4-ol]	–
−20%	1.2 µM	–	–	Cc1oc(-c2ccc(C(F)(F)F)cc2)nc1-c1ccc2c(Br)c(OCC(=O)O)ccc2c1 [Example 16, {1-Bromo-6-[5-methyl-2-(4-trifluoromethyl-phenyl)-oxazol-4-yl]-naphthalen-2-yloxy}-acetic Acid]	–
−47%	0.93 µM	226 to 227 °C	–	Cc1oc(-c2ccc(C(F)(F)F)cc2)nc1-c1ccc(-c2ccc(OCc3nnn[nH]3)cc2)cc1 [Example 15, 5-{4′-[-Methyl-2-(4-trifluoromethyl-phenyl)-oxazol-4-yl]-biphenyl-4-yloxymethyl}-1H-tetrazole]	–
–	1.15 µM	196 to 198 °C	–	Cc1oc(-c2ccc(C(F)(F)F)cc2)nc1-c1ccc(-c2ccc(Cn3oc(=O)[nH]c3=O)cc2)cc1 [Example 13, 2-{4′-[5-Methyl-2-(4-trifluoromethyl-phenyl)-oxazol-4-yl]-biphenyl-4-ylmethyl}-[1,2,4]oxadiazolidine-3,5-dione]	–
–	8.7 µM	–	–	Ammonium molybdate tetrahydrate [reference compound]	–
−68%	0.13 µM	–	–	Cc1oc(-c2ccc(C(F)(F)F)cc2)nc1-c1ccc(-c2cc(Br)c(OC(Cc3ccccc3)C(=O)O)c(Br)c2)cc1 (stereo not drawn) [Example 12, 2-{3,5-Dibromo-4′-[5-methyl-2-(4-trifluoromethyl-phenyl)-oxazol-4-yl]-biphenyl-4-yloxy}-3-phenyl-propionic Acid]	–
−78%	1.25 µM	–	–	Cc1oc(-c2ccc(C(F)(F)F)cc2)nc1-c1cccc(-c2ccc(OC(Cc3ccccc3)C(=O)O)cc2)c1 (stereo not drawn) [Example 8, 2-{3′-[5-Methyl-2-(4-trifluoromethyl-phenyl)-oxazol-4-yl]-biphenyl-4-yloxy}-3-phenyl-propionic Acid]	–
–	–	70 to 72 °C	−40 (2.5 uM) %	COC(=O)C(Cc1ccccc1)Oc1c(Br)cc(-c2ccc(-c3nc(-c4ccc(C(F)(F)F)cc4)oc3C)cc2)cc1Br (stereo not drawn) [Example 11, 2-{3,5-Dibromo-4′-[5-methyl-2-(4-trifluoromethyl-phenyl)-oxazol-4-yl]-biphenyl-4-yloxy}-3-phenyl-propionic Acid Methyl Ester]	–
−54%	0.98 µM	–	–	Cc1oc(-c2ccc(C(F)(F)F)cc2)nc1-c1ccc2c(Br)c(OC(Cc3ccccc3)C(=O)O)ccc2c1 (stereo not drawn) [Example 17, 2-{1-Bromo-6-[5-methyl-2-(4-trifluoromethyl-phenyl)-oxazol-4-yl]-naphthalen-2-yloxy}-3-phenyl-propionic Acid]	–
